Assay results published in article doi:10.1101/2021.10.07.463234v2 (biorxiv, 2021).
Where a name gives a salt, the structure may show the parent alone. Square brackets hold non-standard residues; d marks the D form. Peptide text beside a SMILES is read from it. pGlu = O=C1CC[C@@H](C(=O)O)N1; Thz = O=C(O)[C@@H]1CSCN1

Target: SARS-CoV-2 Mac1 (Severe acute respiratory syndrome coronavirus 2, UniProt P0DTD1)
Test: biochemical
Conditions: for inhibition at 100 µM: read-out: %inhibition; for %inhibition: 100 µM, inhibitor

SMILES | inhibition at 100 µM [%] | %inhibition [%]
CC(=O)O[C@H]1C(=O)[C@@]2(C)[C@H]([C@H](OC(=O)c3ccccc3)[C@]3(O)C[C@H](OC(=O)[C@H](O)[C@@H](NC(=O)c4ccccc4)c4ccccc4)C(C)=C1C3(C)C)[C@]1(OC(C)=O)CO[C@@H]1C[C@@H]2O [Paclitaxel] | 6.04 | –
C1=N/C2=N/c3ccc(OCCN4CCCC4)c(c3)COC/C=C/COCc3cccc(c3)C(=C1)N2 [Pacritinib (SB1518)] | 0 | –
CC(=O)c1c(C)c2cnc(Nc3ccc(N4CCNCC4)cn3)nc2n(C2CCCC2)c1=O [Palbociclib (PD-0332991) HCl] | 0 | –
Cc1nc2n(c(=O)c1CCN1CCC(c3noc4cc(F)ccc34)CC1)CCCC2O (stereo not drawn) [Paliperidone] | 1.55 | –
O=C1c2cccc3c2[C@H](CCC3)CN1[C@@H]1CN2CCC1CC2 [Palonosetron HCl] | 0 | –
NCCC(O)(P(=O)(O)O)P(=O)(O)O [Pamidronate Disodium] | 0.654 | –
CC(=O)O[C@H]1C[C@@H]2CC[C@@H]3[C@H](CC[C@@]4(C)[C@H]3C[C@H]([N+]3(C)CCCCC3)[C@@H]4OC(C)=O)[C@@]2(C)C[C@@H]1[N+]1(C)CCCCC1 [Pancuronium dibromide] | 0 | –
Cc1[nH]c2ccccc2c1CCNCc1ccc(/C=C/C(=O)NO)cc1 [Panobinostat (LBH589)] | 7.31 | –
COc1ccnc(C[S+]([O-])c2nc3cc(OC(F)F)ccc3[nH]2)c1OC (stereo not drawn) [Pantoprazole sodium] | – | 0
COc1ccnc(C[S+]([O-])c2nc3cc(OC(F)F)ccc3[nH]2)c1OC (stereo not drawn) [Pantoprazole] | – | 6.936
CCC(=O)NS(=O)(=O)c1ccc(-c2c(-c3ccccc3)noc2C)cc1 [Parecoxib Sodium] | – | 8.572
CCC(=O)NS(=O)(=O)c1ccc(-c2c(-c3ccccc3)noc2C)cc1 [Parecoxib] | – | 0
C#CCN(C)Cc1ccccc1 [Pargyline hydrochloride] | 0 | –
Cc1cnc(C(=O)N[C@H]2CCCCC/C=C\[C@@H]3C[C@@]3(C(=O)NS(=O)(=O)C3CC3)NC(=O)[C@@H]3C[C@@H](Oc4nc5ccccc5c5ccccc45)CN3C2=O)cn1 [Paritaprevir (ABT-450)] | 0 | –
NC[C@@H]1O[C@H](O[C@H]2[C@@H](O)[C@H](O[C@@H]3[C@@H](O)[C@H](N)C[C@H](N)[C@H]3O[C@H]3O[C@H](CO)[C@@H](O)[C@H](O)[C@H]3N)O[C@@H]2CO)[C@H](N)[C@@H](O)[C@@H]1O [Paromomycin Sulfate] | 0.814 | –
Fc1ccc([C@@H]2CCNC[C@H]2COc2ccc3c(c2)OCO3)cc1 [Paroxetine HCl] | – | 28.69
Fc1ccc([C@@H]2CCNC[C@H]2COc2ccc3c(c2)OCO3)cc1 [Paroxetine mesylate] | – | 0
C/C(=C\c1csc(C)n1)[C@@H]1C[C@@H]2O[C@]2(C)CCC[C@H](C)[C@H](O)[C@@H](C)C(=O)C(C)(C)[C@@H](O)CC(=O)O1 [Patupilone (EPO906, Epothilone B)] | 19.2 | –
Cc1ccc(Nc2nccc(N(C)c3ccc4c(C)n(C)nc4c3)n2)cc1S(N)(=O)=O [Pazopanib HCl (GW786034 HCl)] | – | 31.56
Cc1ccc(Nc2nccc(N(C)c3ccc4c(C)n(C)nc4c3)n2)cc1S(N)(=O)=O [Pazopanib] | – | 12.94
C[C@H]1COc2c(C3(N)CC3)c(F)cc3c(=O)c(C(=O)O)cn1c23 [Pazufloxacin mesylate] | 0 | –
CCOc1cc2ncc(C#N)c(Nc3ccc(F)c(Cl)c3)c2cc1NC(=O)/C=C/CN(C)C [Pelitinib (EKB-569)] | 0 | –
Nc1nc2[nH]cc(CCc3ccc(C(=O)N[C@@H](CCC(=O)O)C(=O)O)cc3)c2c(=O)[nH]1 [Pemetrexed Disodium Hydrate] | 6.24 | –
Nc1nc2[nH]cc(CCc3ccc(C(=O)N[C@@H](CCC(=O)O)C(=O)O)cc3)c2c(=O)[nH]1 [Pemetrexed] | – | 4.612
Cc1cccn2c(=O)c(-c3nnn[nH]3)cnc12 [Pemirolast potassium] | 0 | –

SMILES | inhibition at 100 µM [%] | %inhibition [%]
CN1C(C)(C)CCCC1(C)C [Pempidine] | 28.2 | –
Nc1nc(O)c2ncn(CCC(CO)CO)c2n1 [Penciclovir] | 14.9 | –
OC1(c2ccc(Cl)c(C(F)(F)F)c2)CCN(CCCC(c2ccc(F)cc2)c2ccc(F)cc2)CC1 [Penfluridol] | 5.86 | –
CC(C)(S)[C@@H](N)C(=O)O [Penicillamine] | 0.561 | –
CC1(C)S[C@@H]2[C@H](NC(=O)Cc3ccccc3)C(=O)N2[C@H]1C(=O)O [Penicillin G Sodium] | 5.64 | –
CC1(C)S[C@@H]2[C@H](NC(=O)COc3ccccc3)C(=O)N2[C@H]1C(=O)O [Penicillin V potassium salt] | 0 | –
N=C(N)c1ccc(OCCCCCOc2ccc(C(=N)N)cc2)cc1 [Pentamidine isethionate] | 0 | –
CC(=O)CCCCn1c(=O)c2c(ncn2C)n(C)c1=O [Pentoxifylline] | 19.6 | –
CCN(CC)CCOCCOC(=O)C1(c2ccccc2)CCCC1 [Pentoxyverine Citrate] | 24.6 | –
CCCN1C[C@H](CSC)C[C@@H]2c3cccc4[nH]cc(c34)C[C@H]21 [Pergolide Mesylate] | 7.58 | –
CCC[C@H](N[C@@H](C)C(=O)N1[C@H](C(=O)O)C[C@@H]2CCCC[C@@H]21)C(=O)OCC [Perindopril Erbumine] | 5.79 | –
OCCN1CCN(CCCN2c3ccccc3Sc3ccc(Cl)cc32)CC1 [Perphenazine] | 0 | –
FC(F)(F)c1ccc(CNc2ccc(Cc3c[nH]c4ncc(Cl)cc34)cn2)cn1 [Pexidartinib (PLX3397)] | 0.21 | –
Cc1ccc(-n2nc(C(C)(C)C)cc2NC(=O)NCc2cc(F)ccc2Oc2ccc3c(cnn3CCO)c2)cc1 [Pexmetinib (ARRY-614)] | 0.769 | –
CCOc1ccc(NC(C)=O)cc1 [Phenacetin] | 11.4 | –
Nc1ccc(/N=N/c2ccccc2)c(N)n1 [Phenazopyridine HCl] | 17 | –
N=C(N)NC(=N)NCCc1ccccc1 [Phenformin HCl] | 30.5 | –
O=C1c2ccccc2C(=O)C1c1ccccc1 [Phenindione] | 28.8 | –
CN(C)CCC(c1ccccc1)c1ccccn1 (stereo not drawn) [Pheniramine Maleate] | 9.19 | –
c1ccc2c(c1)Nc1ccccc1S2 [Phenothiazine] | 18.2 | –
CC(COc1ccccc1)N(CCCl)Cc1ccccc1 (stereo not drawn) [Phenoxybenzamine HCl] | 0 | –
Cc1ccc(N(CC2=NCCN2)c2cccc(O)c2)cc1 [Phentolamine Mesylate] | 0 | –
CCCCC1C(=O)N(c2ccccc2)N(c2ccccc2)C1=O [Phenylbutazone] | 0 | –
CNC[C@H](O)c1cccc(O)c1 [Phenylephrine HCl] | 14.5 | –
O=C1N=C(O)NC1(c1ccccc1)c1ccccc1 [Phenytoin Sodium] | 16 | –

SMILES | inhibition at 100 µM [%] | %inhibition [%]
O=C1NC(=O)C(c2ccccc2)(c2ccccc2)N1 [Phenytoin] | 14.7 | –
CC(=O)NS(=O)(=O)c1ccc(NC(=O)c2ccccc2C(=O)O)cc1 [Phthalylsulfacetamide] | 6.67 | –
CS(=O)(=O)N1CCN(Cc2cc3nc(-c4cccc5[nH]ncc45)nc(N4CCOCC4)c3s2)CC1 [Pictilisib (GDC-0941)] | 10.2 | –
O=C1CC[C@@H](C(=O)N2CSC[C@H]2C(=O)O)N1 [Pidotimod] ([pGlu]-[Thz]-OH) | 4.19 | –
COc1ccc(Cl)c(Nc2nc3ccccc3nc2NS(=O)(=O)c2cccc(NC(=O)C(C)(C)N)c2)c1 [Pilaralisib (XL147)] | 31.9 | –
CC[C@@H]1C(=O)OC[C@@H]1Cc1cncn1C [Pilocarpine HCl] | 0 | –
CC(C)COc1ccc(CNC(=O)N(Cc2ccc(F)cc2)C2CCN(C)CC2)cc1 [Pimavanserin] | 1.16 | –
CC[C@@H]1/C=C(\C)C[C@H](C)C[C@H](OC)[C@H]2O[C@@](O)(C(=O)C(=O)N3CCCC[C@H]3C(=O)O[C@H](/C(C)=C/[C@@H]3CC[C@H](Cl)[C@H](OC)C3)[C@H](C)[C@@H](O)CC1=O)[C@H](C)C[C@@H]2OC [Pimecrolimus] | 25.5 | –
COc1ccc(-c2nc3cc(C4=NNC(=O)CC4C)ccc3[nH]2)cc1 (stereo not drawn) [Pimobendan] | 13 | –
O=c1[nH]c2ccccc2n1C1CCN(CCCC(c2ccc(F)cc2)c2ccc(F)cc2)CC1 [Pimozide] | 0 | –
CCc1ccc(CCOc2ccc(CC3SC(=O)NC3=O)cc2)nc1 (stereo not drawn) [Pioglitazone] | 0 | –
CCn1cc(C(=O)O)c(=O)c2cnc(N3CCNCC3)nc21 [Pipemidic acid] | 0 | –
CCN1CCN(C(=O)N[C@@H](C(=O)N[C@@H]2C(=O)N3[C@@H]2SC(C)(C)[C@@H]3C(=O)O)c2ccccc2)C(=O)C1=O [Piperacillin Sodium] | 24.2 | –
C1CNCCN1 [Piperazine] | 5.65 | –
O=C(/C=C/C=C/c1ccc2c(c1)OCO2)N1CCCCC1 [Piperine] | 0 | –
NC(=O)CN1CCCC1=O [Piracetam] | 9.88 | –
Cc1ccc(=O)n(-c2ccccc2)c1 [Pirfenidone] | 15.4 | –
CCn1cc(C(=O)O)c(=O)c2cnc(N3CCCC3)nc21 [Piromidic Acid] | 10.1 | –
CN1C(C(=O)Nc2ccccn2)=C(O)c2ccccc2S1(=O)=O [Piroxicam] | 38 | –
O=C(O)C[C@H](O)C[C@H](O)/C=C/c1c(C2CC2)nc2ccccc2c1-c1ccc(F)cc1 [Pitavastatin Calcium] | 13.3 | –
CN1CCC(=C2c3ccccc3CCc3sccc32)CC1 [Pizotifen Malate] | 0 | –
c1cc(CN2CCCNCCNCCCNCC2)ccc1CN1CCCNCCNCCCNCC1 [Plerixafor (AMD3100)] | 8.18 | –
Nc1cccc2c1C(=O)N(C1CCC(=O)NC1=O)C2=O (stereo not drawn) [Pomalidomide] | 0 | –
Cc1ccc(C(=O)Nc2ccc(CN3CCN(C)CC3)c(C(F)(F)F)c2)cc1C#Cc1cnc2cccnn12 [Ponatinib (AP24534)] | 5.09 | –
CCC/N=C1\S/C(=C\c2ccc(OC[C@H](O)CO)c(Cl)c2)C(=O)N1c1ccccc1C [Ponesimod] | 0 | –
